Values joined by “and” are separate entries in the source; they are usually repeats but may differ in a detail not shown here. Equal values may be shown once. Read-outs that look alike come from different tables or passages of the source.
Columns and labels:
[1] = format: physicochemical
Source text: Liver Weight Blood Flow Protein
(g/kg Body Weight) (mL/min/kg) (mg/g liver
Supplementary Table 7. Quantum yields of photosubstitution in different solvents.
Compound Φ(PS) 5% DMSO in H2Oa Φ(PS) Opti-MEMa Φ(PS) CH3OH […]
a Quantum yield for photosubstitution, ΦPS, in 5% DMSO in H2O and Opti-MEM, calculated by optical approach
(Fig. S8-10). b ΦPS in 5% DMSO in H2O, determined by HPLC approach. HPLC was used due to overlap in absorbance profiles for 6 and its photochemical product (Fig. S7).
Supplementary Table 8. Lipinski’s rule of five. […]
a log P was calculated by taking the logarithm of the ratio of the MLCT absorbance of each complex (4-6) in octanol to the corresponding absorbance in H2O.
1. Lameijer, L. N. et al. A Red-Light-Activated Ruthenium-Caged NAMPT Inhibitor Remains Phototoxic in Hypoxic Cancer Cells. Angew. Chem. Int. Ed. Engl. 56, 11549-11553,

CYP1B1 = molecular target: T1, CYP1B1 (Homo sapiens, UniProt Q16678); assay: In cell activity assay for CYP1B1 (7-ethoxyresorufin conversion, HEK293 T-Rex cells); settings: for % Enzyme Activity red light / % Enzyme Activity: CYP1B1; for % Enzyme Activity red light: 660 nm light (58.7 J/cm2); for % Enzyme Activity: dark; for IC50: n = 3
T1 sequence (Q16678 1-543): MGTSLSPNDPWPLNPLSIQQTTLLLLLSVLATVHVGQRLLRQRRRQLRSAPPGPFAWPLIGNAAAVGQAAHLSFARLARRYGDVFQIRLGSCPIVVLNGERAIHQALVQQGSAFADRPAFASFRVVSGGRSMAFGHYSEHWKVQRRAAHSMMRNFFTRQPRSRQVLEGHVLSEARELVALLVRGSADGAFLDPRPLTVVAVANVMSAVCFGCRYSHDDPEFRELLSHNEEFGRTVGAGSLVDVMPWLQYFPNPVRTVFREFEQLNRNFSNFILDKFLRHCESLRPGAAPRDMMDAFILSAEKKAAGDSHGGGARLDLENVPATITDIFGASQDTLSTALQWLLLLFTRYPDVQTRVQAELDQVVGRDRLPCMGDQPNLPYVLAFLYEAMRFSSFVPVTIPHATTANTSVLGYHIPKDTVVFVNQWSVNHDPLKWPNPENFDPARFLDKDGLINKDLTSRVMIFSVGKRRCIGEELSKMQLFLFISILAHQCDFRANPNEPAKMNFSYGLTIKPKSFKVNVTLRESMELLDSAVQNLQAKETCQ
Source text: To rigorously assess the activity of inhibitors under biologically relevant conditions, an assay was developed for screening of CYP1B1 activity in live cells.
A stable HEK cell line was created with CYP1B1 expression under the control of tetracycline to facilitate regulated and titratable expression (see the Methods section for more details). […] The fluorogenic substrate, 7-ethoxyresorufin (REE), is a validated substrate for both CYPs and was used in both assays. Cytochrome P450 oxidoreductase (POR) is the required reductase partner for CYPs, and was also overexpressed in these systems to improve catalytic efficiency and the resulting signal for the assay.
Cell lines were generated in the HEK293 T-Rex cell line. Following transfection, cells were selected with 500 μg/mL Zeocin, and 7.5 μg/mL Blasticidin to create a stable pool. Inducible expression of CYP and POR was confirmed by immunoblot. […] The lines were maintained with 250 μg/mL Zeocin and 7.5 μg/mL Blasticidin to ensure continued selective pressure.
Cell lines were seeded onto Geltrex coated 96-well plates at 40,000 cells/well, and grown overnight in DMEM media containing 1 μg/mL tetracycline. The media was then replaced with Opti-MEM supplemented with 2% FBS and 1 μg/mL tetracycline. Compounds were serially diluted in Opti-MEM supplemented with 2% FBS and 1 μg/mL tetracycline and an equal volume of compound added to the cells (n = 3). Following a 1 h incubation, resorufin ethyl ether (REE; for CYP1B1 and 1A1) or dibenzylfluorescein (DBF; for 19A1) was added to the cells for a total concentration of 5 μM for REE and 1 μM for DBF. […] Dose–response curves were generated in Prism and normalized using the no-compound control (set as 100% activity) and the no-cell control (set as 0% activity; this value in the raw data reflects the background fluorescence of the dye alone).
For the light-activated compounds, the experiment was modified as follows: Cells were seeded and grown overnight as described above. Media was replaced with L-15 containing 1 μg/mL tetracycline; L-15 media was used in place of opti-MEM™ to maintain CO2 outside the incubator, and to prevent cellular damage from light. Compounds were serially diluted in L-15 with 1 μg/mL tetracycline and added to the cells followed by a 1 h incubation. […] REE or DBF was added as described above.

Q: Which results are given for `COc1ccc(/C=C/c2cc[n+]([Ru-4]345([n+]6ccccc6-c6cccc([n+]63)-c3cccc[n+]34)[n+]3c(cc(C(=O)[O-])c4ccccc43)-c3cc(C(=O)[O-])c4ccccc4[n+]35)cc2)c(OC)c1` [Compound 6]?
A: log P [1]: 0.2; % Enzyme Activity red light (CYP1B1; Log Conc 0.39794): -2.704% and -2.565%; % Enzyme Activity red light (CYP1B1; Log Conc 1): -2.451% and -1.971%; % Enzyme Activity red light (CYP1B1; Log Conc -0.20412): -2.413% and -1.554%; % Enzyme Activity red light (CYP1B1; Log Conc -0.80618): -1.314% and -2.085%; % Enzyme Activity red light (CYP1B1; Log Conc -1.40824): -2.274% and -3.677%; % Enzyme Activity red light (CYP1B1; Log Conc -2.0103): 1.567% and 0.556%; % Enzyme Activity red light (CYP1B1; Log Conc -2.61236): 27.0407% and 26.6869%; % Enzyme Activity red light (CYP1B1; Log Conc -3.21442): 48.2689% and 41.5972%; % Enzyme Activity red light (CYP1B1; Log Conc -3.81648): 59.7422% and 63.5835%; % Enzyme Activity red light (CYP1B1; Log Conc -4.41854): 78.0389% and 65.5042%; % Enzyme Activity red light (CYP1B1; Log Conc -5.0206): 106.495% and 94.3139%; % Enzyme Activity red light (CYP1B1; Log Conc -5.62266): 87.0104% and 112.181%; % Enzyme Activity (CYP1B1; Log Conc 0.39794): 37.9328% and 31.3874%; % Enzyme Activity (CYP1B1; Log Conc 1): -5.282% and -4.5489%; % Enzyme Activity (CYP1B1; Log Conc -0.20412): 83.1691% and 81.3495%; % Enzyme Activity (CYP1B1; Log Conc -0.80618): 99.722% and 104.043%; % Enzyme Activity (CYP1B1; Log Conc -1.40824): 109.148% and 104.422%; % Enzyme Activity (CYP1B1; Log Conc -2.0103): 132.424% and 133.005%; % Enzyme Activity (CYP1B1; Log Conc -2.61236): 99.1913% and 124.791%; % Enzyme Activity (CYP1B1; Log Conc -3.21442): 127.496% and 122.416%; % Enzyme Activity (CYP1B1; Log Conc -3.81648): 106.293% and 106.621%; % Enzyme Activity (CYP1B1; Log Conc -4.41854): 105.939% and 103.083%; % Enzyme Activity (CYP1B1; Log Conc -5.0206): 100.606% and 105.459%; % Enzyme Activity (CYP1B1; Log Conc -5.62266): 101.365% and 96.184%; IC50 (CYP1B1; read-out: IC50 CYP1B1 Dark, Dark, conversion of 7-ethoxyresorufin (REE)): 1900 nM; IC50 (CYP1B1; read-out: IC50 CYP1B1 Light, Light: 660 nm, 58.7 J/cm^2, REE): 0.3 nM

From paper PMC9233675, “Ru(II) photocages enable precise control over enzyme activity with red light” (Nature Communications, 2022)
